# Results as given in ChEMBL document CHEMBL1127579, “Novel, potent luteinizing hormone-releasing hormone antagonists with improved solubility in water” (1994).
# Legend:
# Format in all cases: functional
# Rattus norvegicus [1] = species on record: Rattus norvegicus; assay: Antiovulatory activity expressed as ratio of rats ovulated/total rats at a dose of 0.5 microg; 6/6
# Rattus norvegicus [2] = species on record: Rattus norvegicus; assay: Antiovulatory activity expressed as ratio of rats ovulated/total rats at a dose of 0.5 microg; 5/5
# Rattus norvegicus [3] = species on record: Rattus norvegicus; assay: Antiovulatory activity expressed as ratio of rats ovulated/total rats at a dose of 0.5 microg; 7/7
# Rattus norvegicus [4] = species on record: Rattus norvegicus; assay: Evaluated for histamine releasing activity
# Rattus norvegicus [5] = species on record: Rattus norvegicus; assay: Antiovulatory activity expressed as ratio of rats ovulated/total rats at a dose of 0.25 microg; 6/8
# Rattus norvegicus [6] = species on record: Rattus norvegicus; assay: Antiovulatory activity expressed as ratio of rats ovulated/total rats at a dose of 1.0 ug
# Rattus norvegicus [7] = species on record: Rattus norvegicus; assay: Antiovulatory activity expressed as ratio of rats ovulated/total rats at a dose of 0.5 microg; 0/8
# Rattus norvegicus [8] = species on record: Rattus norvegicus; assay: Antiovulatory activity expressed as ratio of rats ovulated/total rats at a dose of 0.5 microg; 4/6
smiles,measurement,setting,value
CC(=O)N[C@H](Cc1ccc2ccccc2c1)C(=O)N[C@H](Cc1ccc(Cl)cc1)C(=O)N[C@H](Cc1cccnc1)C(=O)N[C@@H](CO)C(=O)N[C@@H](CCCNC(=O)c1cnccn1)C(=O)N[C@H](CCCCNC(=O)c1ccc(N)nc1)C(=O)N[C@@H](CC(C)C)C(=O)N[C@@H](CCCN=C(N)N)C(=O)N1CCC[C@H]1C(=O)N[C@H](C)C(=O)O,Number of rats ovulated,Rattus norvegicus [1],6
CC(=O)N[C@H](Cc1cnc2ccccc2c1)C(=O)N[C@H](Cc1ccc(Cl)cc1)C(=O)N[C@H](Cc1cccnc1)C(=O)N[C@@H](CO)C(=O)N[C@@H](CCCNC(=O)c1cnccn1)C(=O)N[C@H](CCCNC(=O)c1ccc(N)nc1)C(=O)N[C@@H](CC(C)C)C(=O)N[C@@H](CCCN=C(N)N)C(=O)N1CCC[C@H]1C(=O)N[C@H](C)C(=O)O,Ratio,Rattus norvegicus [2],5
CC(=O)N[C@H](Cc1ccc2ccccc2c1)C(=O)N[C@H](Cc1ccc(Cl)cc1)C(=O)N[C@H](Cc1cccnc1)C(=O)N[C@@H](CO)C(=O)N[C@@H](CCCCNC(=O)c1cccnc1N)C(=O)N[C@H](CCCCNC(=O)c1cccnc1N)C(=O)N[C@@H](CC(C)C)C(=O)N[C@@H](CCCCNC(C)C)C(=O)N1CCC[C@H]1C(=O)N[C@H](C)C(=O)O,Number of rats ovulated,Rattus norvegicus [3],7
C[C@@H](NC(=O)[C@@H]1CCCN1C(=O)[C@H](CCCN=C(N)N)NC(=O)[C@H](Cc1c[nH]cn1)NC(=O)[C@@H](CCCCNC(=O)c1ccc(N)nc1)NC(=O)[C@H](CCCCNC(=O)c1ccccn1)NC(=O)[C@H](CO)NC(=O)[C@@H](Cc1cccnc1)NC(=O)[C@@H](Cc1ccc(Cl)cc1)NC(=O)[C@H](N)Cc1ccc2ccccc2c1)C(=O)O,Number of rats ovulated,Rattus norvegicus [1],6
CC(=O)N[C@H](Cc1ccc2ccccc2c1)C(=O)N[C@H](Cc1ccc(Cl)cc1)C(=O)N[C@H](Cc1cccnc1)C(=O)N[C@@H](CO)C(=O)N[C@@H](CCCCNC(=O)c1ccccn1)C(=O)N[C@H](CCCNC(=O)c1ccc(N)nc1)C(=O)N[C@@H](CC(C)C)C(=O)N[C@@H](CCCN=C(N)N)C(=O)N1CCC[C@H]1C(=O)N[C@H](C)C(=O)O,ED50,Rattus norvegicus [4],100 µg/mL
same,Ratio,Rattus norvegicus [5],6
same,Ratio,Rattus norvegicus [6],0
same,Ratio,Rattus norvegicus [7],0
CC(=O)N[C@H](Cc1ccc2ccccc2c1)C(=O)N[C@H](Cc1ccc(Cl)cc1)C(=O)N[C@H](Cc1cccnc1)C(=O)N[C@@H](CO)C(=O)N[C@@H](CCCCNC(=O)c1nccnc1N)C(=O)N[C@H](CCCCNC(=O)c1nccnc1N)C(=O)N[C@@H](CC(C)C)C(=O)N[C@@H](CCCN=C(N)N)C(=O)N1CCC[C@H]1C(=O)N[C@H](C)C(=O)O,Ratio,Rattus norvegicus [8],4
CC(=O)N[C@H](Cc1ccc2ccccc2c1)C(=O)N[C@H](Cc1ccc(Cl)cc1)C(=O)N[C@H](Cc1cccnc1)C(=O)N[C@@H](CO)C(=O)N[C@@H](CCCCNC(=O)c1ccccn1)C(=O)N[C@H](CCCCNC(=O)c1nccnc1N)C(=O)N[C@@H](CC(C)C)C(=O)N[C@@H](CCCN=C(N)N)C(=O)N1CCC[C@H]1C(=O)N[C@H](C)C(=O)O,Number of rats ovulated,Rattus norvegicus [1],6
CC(=O)N[C@H](Cc1ccc2ccccc2c1)C(=O)N[C@H](Cc1ccc(Cl)cc1)C(=O)N[C@H](Cc1cccnc1)C(=O)N[C@@H](CO)C(=O)N[C@@H](CCCCNC(=O)c1ccc(N)nc1)C(=O)N[C@H](CCCCNC(=O)c1ccc(N)nc1)C(=O)N[C@@H](CC(C)C)C(=O)N[C@@H](CCCCNC(C)C)C(=O)N1CCC[C@H]1C(=O)N[C@H](C)C(=O)O,Number of rats ovulated,Rattus norvegicus [3],7
CC(=O)N[C@H](Cc1ccc2ccccc2c1)C(=O)N[C@H](Cc1ccc(Cl)cc1)C(=O)N[C@H](Cc1cccnc1)C(=O)N[C@@H](CO)C(=O)N[C@@H](CCCCNC(=O)c1ccc(N)nc1)C(=O)N[C@H](CCCCNC(=O)c1ccc(N)nc1)C(=O)N[C@@H](CC(C)C)C(=O)N[C@@H](CCCN=C(N)N)C(=O)N1CCC[C@H]1C(=O)N[C@H](C)C(=O)O,Number of rats ovulated,Rattus norvegicus [1],6
CC(=O)N[C@H](Cc1ccc2ccccc2c1)C(=O)N[C@H](Cc1ccc(Cl)cc1)C(=O)N[C@H](Cc1cccnc1)C(=O)N[C@@H](CO)C(=O)N[C@@H](CCCCNC(=O)c1ccccn1)C(=O)N[C@H](CCCCNC(=O)c1ncccc1N)C(=O)N[C@@H](CC(C)C)C(=O)N[C@@H](CCCCNC(C)C)C(=O)N1CCC[C@H]1C(=O)N[C@H](C)C(=O)O,Ratio,Rattus norvegicus [8],4
CC(=O)N[C@H](Cc1ccc2ccccc2c1)C(=O)N[C@H](Cc1ccc(Cl)cc1)C(=O)N[C@H](Cc1cccnc1)C(=O)N[C@@H](CO)C(=O)N[C@@H](CCCCNC(=O)c1ccccn1)C(=O)N[C@H](CCCCNC(=O)c1cnccn1)C(=O)N[C@@H](CC(C)C)C(=O)N[C@@H](CCCCN)C(=O)N1CCC[C@H]1C(=O)N[C@H](C)C(=O)O,Number of rats ovulated,Rattus norvegicus [1],6
CNC[C@@H](NC(=O)[C@@H]1CCCN1C(=O)[C@H](CCCN=C(N)N)NC(=O)[C@H](CC(C)C)NC(=O)[C@@H](CCCCNC(=O)c1ccc(N)nc1)NC(=O)[C@H](CCCCNC(=O)c1ccccn1)NC(=O)[C@H](CO)NC(=O)[C@@H](Cc1cccnc1)NC(=O)[C@@H](Cc1ccc(Cl)cc1)NC(=O)[C@H](N)Cc1ccc2ccccc2c1)C(=O)O,ED50,Rattus norvegicus [4],31 µg/mL
same,Ratio,Rattus norvegicus [5],6
same,Ratio,Rattus norvegicus [6],0
same,Ratio,Rattus norvegicus [7],0
CC(=O)N[C@H](Cc1ccc2ccccc2c1)C(=O)N[C@H](Cc1ccc(Cl)cc1)C(=O)N[C@H](Cc1cccnc1)C(=O)N[C@@H](CO)C(=O)N[C@@H](CCCCNC(=O)c1cccc(N)n1)C(=O)N[C@H](CCCCNC(=O)c1cccc(N)n1)C(=O)N[C@@H](CC(C)C)C(=O)N[C@@H](CCCN=C(N)N)C(=O)N1CCC[C@H]1C(=O)N[C@H](C)C(=O)O,Number of rats ovulated,Rattus norvegicus [1],6
CC(=O)N[C@H](Cc1ccc2ccccc2c1)C(=O)N[C@H](Cc1ccc(Cl)cc1)C(=O)N[C@H](Cc1cccnc1)C(=O)N[C@@H](CO)C(=O)N[C@@H](CCCCNC(=O)c1cnccn1)C(=O)N[C@H](CCCCNC(=O)c1cccnc1)C(=O)N[C@@H](CC(C)C)C(=O)N[C@@H](CCCCN)C(=O)N1CCC[C@H]1C(=O)N[C@H](C)C(=O)O,Number of rats ovulated,Rattus norvegicus [1],6
CC(=O)N[C@H](Cc1ccc2ccccc2c1)C(=O)N[C@H](Cc1ccc(Cl)cc1)C(=O)N[C@H](Cc1cccnc1)C(=O)N[C@@H](CO)C(=O)N[C@@H](CCCCNC(=O)c1cccc(N)n1)C(=O)N[C@H](CCCCNC(=O)c1cccc(N)n1)C(=O)N[C@@H](CC(C)C)C(=O)N[C@@H](CCCCNC(C)C)C(=O)N1CCC[C@H]1C(=O)N[C@H](C)C(=O)O,Number of rats ovulated,Rattus norvegicus [3],7
CC(=O)N[C@H](Cc1ccc2ccccc2c1)C(=O)N[C@H](Cc1ccc(Cl)cc1)C(=O)N[C@H](Cc1cccnc1)C(=O)N[C@@H](CO)C(=O)N[C@@H](CCCCNC(=O)c1cccnc1N)C(=O)N[C@H](CCCCNC(=O)c1cccnc1N)C(=O)N[C@@H](CC(C)C)C(=O)N[C@@H](CCCN=C(N)N)C(=O)N1CCC[C@H]1C(=O)N[C@H](C)C(=O)O,Number of rats ovulated,Rattus norvegicus [1],6
CC(=O)N[C@H](Cc1ccc2ccccc2c1)C(=O)N[C@H](Cc1ccc(Cl)cc1)C(=O)N[C@H](Cc1cccnc1)C(=O)N[C@@H](CO)C(=O)N[C@@H](CCCCNC(=O)c1ccccn1)C(=O)N[C@H](CCCCNC(=O)c1cccnc1N)C(=O)N[C@@H](CC(C)C)C(=O)N[C@@H](CCCN=C(N)N)C(=O)N1CCC[C@H]1C(=O)N[C@H](C)C(=O)O,Number of rats ovulated,Rattus norvegicus [3],7
